The text below walks through data of patent US20100222439A1, “BEVERAGE CONTAINING A POLYMERIC POLYPHENOL” (CONOPCO, INC., D/B/A UNILEVER, priority 2009, published 2010).

A short description of the series: Theaflavins feeding model (optical density). It counts as physicochemical. How it is done: A 3 mg/mL aqueous solution of theaflavins was prepared at 80 degrees Celsius. 0.625 mg/mL aqueous solutions of whey protein isolate and iota carrageenan were prepared and all three solutions combined to yield a solution with 1.5 mg/mL theaflavins, 0.156 mg/mL whey protein isolate and 0.156 mg/mL iota carrageenan. The following feeding programme was used with the 3 mg/mL aqueous solution of theaflavins being either at ambient temperature (reference “Procedure B”) or at 80 degrees Celsius (reference “Procedure A”) when combined with the ambient temperature 0.625 mg/mL aqueous solutions of whey protein isolate and iota carrageenan:
TF+WPI/IC: 25 mL whey protein isolate solution and 25 mL iota carrageenan solution are premixed and added to 50 mL theaflavins solution. TF+IC: 25 mL iota carrageenan solution is added to 50 mL of theaflavins solution and 25 mL of deionised water added. TF+WPI: 25 mL whey protein isolate solution is added to 50 mL of theaflavins solution and 25 mL of deionised water added. TFWPI+IC: 25 mL whey protein isolate solution is added to 50 mL theaflavins solution, and then 25 mL iota carrageenan solution is added after 10 minutes. […]
All the samples were stored at 4 degrees Celsius for 24 hours in order to equilibrate the tea creaming process before measurement of turbidity at 600 nm with a Safire2™ microplate reader (Tecan Group Ltd.).

Consider Iota carrageenan, for which the “Effect on solubility of theaflavin” value is “decreases the solubility of theaflavin”.
